From PMC4858918, “Improving the N-terminal diversity of sansanmycin through mutasynthesis” (Microbial Cell Factories, 2016) come the findings set out here.

Converted amounts (≈) assume the structure as drawn.

Data set [1] is described as follows: Stability determination in KH2PO4 buffer. The class given is physicochemical. Conditions: chemical stability, 0.05 M KH2PO4 buffer pH 6.0, room temperature (25 °C), HPLC peak areas, three parallel repeats. The method, then:
As it is easier to get enough amount of sansanmycin MX-2 and MX-4, the stability test of sansanmycin A, MX-2 and MX-4 was performed in KH2PO4 buffer (pH 6.0) at room temperature.
Fig. 8 Stability of sansanmycin A, MX-2 and MX-4. a HPLC analysis of sansanmycin A at indicated days in KH2PO4 buffer (pH 6.0) at room temperature. b The changes of the level of sansanmycin A, MX-2 and MX-4 over time. All samples were analyzed by HPLC and quantified according to the areas of peaks. blue line, sansanmycin MX-2; red line, sansanmycin MX-4; green line, sansanmycin A
To dissect the stability of sansanmycin A and other sansanmycin analogues, compounds were dissolved in 0.05 M KH2PO4 buffer (pH adjusted to 6.0 with NaOH). All samples were incubated at 25 °C for 9 days. Each sample has three parallel repeats. Residual analogues were analyzed by HPLC and quantified by the peak areas.

The subject of data set [2] is M. tuberculosis H37Rv. As to the kind of experiment: MIC, microplate Alamar blue assay (MABA). Particulars: Mycobacterium tuberculosis, standard and susceptible strain. The class given is cell-based. (The colour change of resazurin is a common sign of viable cells or microbes.)
Data set [3] relates to E. coli ΔtolC mutant. As to the kind of experiment: MIC, microdilution test (CLSI). Particulars: Mueller-Hinton broth, 10^6 cells/ml, 37 °C, 24 h, visual observation, triplicate.
In data set [4] the test system is P. aeruginosa 11. Briefly: MIC, microdilution test (CLSI). Particulars: Pseudomonas aeruginosa, 11, 24 h, read-out: MIC P. aeruginosa 11.
Data set [5] concerns B. subtilis CMCC (B) 63501. As to the kind of experiment: MIC, microdilution test (CLSI). Particulars: Bacillus subtilis, 24 h, read-out: MIC B. subtilis CMCC (B) 63501. For orientation: Broth dilution looks for growth in wells or tubes with falling amounts of substance.

Take `CSCC[C@H](NC(=O)N[C@@H](Cc1c[nH]c2ccccc12)C(=O)O)C(=O)NC(C(=O)N/C=C1/CC(O)C(n2ccc(=O)[nH]c2=O)O1)C(C)N(C)C(=O)[C@@H](N)Cc1cccc(O)c1` (some centres unmarked) [A, sansanmycin A]: the “compound remained after 6 days of incubation” value in data set [1] is reported as “less than 10%”.

Usually MIC stands for the lowest concentration that inhibits growth of the organism. Compound `CC[C@@H](CO)NCCN[C@@H](CC)CO` [Ethambutol] registered a minimum inhibitory concentration (MIC) in data set [2] of 0.5 µg/mL (≈ 2.45 µM).

As for `NNC(=O)c1ccncc1` [Isoniazid], in data set [2], inhibition of growth (MIC) required 0.125 µg/mL (≈ 0.911 µM).

Compound `CO[C@H]1/C=C/O[C@@]2(C)Oc3c(C)c(O)c4c(O)c(c(/C=N/N5CCN(C)CC5)c(O)c4c3C2=O)NC(=O)/C(C)=C\C=C\[C@H](C)[C@H](O)[C@@H](C)[C@@H](O)[C@@H](C)[C@H](OC(C)=O)[C@@H]1C` [Rifampicin] showed an MIC in data set [2] of less than 0.06 µg/mL.

Take `[H]/N=C(/N)N[C@H]1[C@H](O)[C@@H](O)[C@H](O[C@@H]2O[C@@H](C)[C@](O)(C=O)[C@H]2O[C@@H]2O[C@@H](CO)[C@H](O)[C@@H](O)[C@@H]2NC)[C@@H](N/C(N)=N\[H])[C@@H]1O` [Streptomycin]: the “MIC E. coli ΔtolC” value in data set [3] is 16 µg/mL (≈ 27.5 µM). The MIC in data set [2] worked out at 0.25 µg/mL (≈ 0.43 µM); in data set [4], 4 µg/mL (≈ 6.88 µM); in data set [5], 2 µg/mL (≈ 3.44 µM).
